Reference: publication PMC4421842 (Nature Communications, 2015)
≈ marks a conversion by molar mass, not a printed value. Read-outs that look alike come from different tables or passages of the source.

Legend:
[1] = test system: FQR S. aureus (NRS3, FQR); test: MIC, microdilution broth assay, FQR MRSA NRS3; type: cell-based; conditions: NRS3; S84L GyrA and S80F ParC; three independent replicates
[2] = Aqueous solubility determination; conditions: PBS, pH 7.4
Procedure: (§3) Three independent replicates of each compound were performed.

[3] = test system: WT S. aureus (ATCC 29213, WT); test: microbe, parasite or virus in culture; type: cell-based; conditions: WT GyrA and WT ParC, three independent replicates; for MIC against S. aureus 29213: ATCC 29213; for MIC: Staphylococcus aureus, ATCC29213, ATCC 29213, read-out: MIC against S. aureus 29213
human topoisomerase II = biological target: T1, human topoisomerase II (Homo sapiens, UniProt P11388); test: Human topoisomerase decatenation assay; type: biochemical
T1 construct: purchased Inspiralis
Procedure: The decatenation assay was performed with the Human Topo II Decatenation Assay Kit (Inspiralis), according to the manufacturer's instructions, with minor modifications. First, a master mix was made containing 2 μl of 10 × assay buffer (500 mM Tris-HCl pH 7.5, 1250, mM NaCl, 100 mM MgCl2, 50 mM DTT, 1,000 μg ml^−1 albumin), 0.67 μl of 30 mM ATP, 1.34 μl of 0.1 ng μl^−1 kDNA, and 14.3 μl of nuclease-free water per sample is made. DMSO or 30 × compound is added to a 0.5-ml Eppendorf tube (0.67 μl per tube). The master mix is then added to each tube (18.3 μl per tube). Finally, 1 U of human topoisomerase (1 μl of 1 U μl^−1 stock) is added to each tube for a final volume of 20 μl. The tubes are then incubated at 37 °C for 30 min. Reactions are stopped by the addition of 20 μl of 24:1 chloroform:isoamyl alcohol and 20 μl of stop dye (40% sucrose, 1 mM EDTA, 100 mM Tris-HCl pH 7.5, 0.5 μg ml^−1 bromophenol blue). Samples were run on 1% agarose gels containing 0.5 μg ml^−1 ethidium bromide for 1 h at 110 V or until the dye front was approximately halfway down the gel. Gels were imaged on a Molecular Imager Gel Doc XR+ (Biorad).

[4] = test system: K. pneuomoniae, S. aureus or Mycobacterium tuberculosis; design: method as in PMID 24545057; conditions: cited from earlier work
[5] = design: method as in PMID 24545057; conditions: dosed subcutaneously, orally or by intraperitoneal injection; cited from earlier work
Ent. Spp. = test: MIC, microdilution broth, Ent. Spp. VRE clinical isolate; type: cell-based; conditions: Enterococcus, C28036, gyrA Ser83Ile, parC Ser80Ile
Source text: (§1) MRSA and P. aeruginosa isolates were from Cubist Pharmaceuticals (Lexington, MA). VRE isolates were from a previously published collection. E. coli strains were obtained either from ATCC or Professor Cari Vanderpool (UIUC). A. baumannii isolates were obtained from Dr John Quale[51].
(§2) Mueller Hinton (MH) broth was used.

E. faecium = test: microbe, parasite or virus in culture; type: cell-based; conditions: for MIC: Enterococcus faecium, E. faecium
A. baumannii [6] = test: MIC, microdilution broth, A. baumannii; type: cell-based; conditions: for MIC: Acinetobacter baumannii
Source text: as §1, §2

P. aeruginosa [7] = test: MIC, microdilution broth, P. aeruginosa; type: cell-based
Source text: as §1, §2

VRE clinical isolates = test: MIC, VRE clinical isolates panel (summary by GyrA mutation); type: cell-based, Enterococcus; conditions: panel of VRE clinical isolates (n=22)
Source text: as §1, §2

physchem = conditions: pH 7.4
Procedure: as §3

E. coli = test: microbe, parasite or virus in culture; type: cell-based
Source text: as §1, §2

MRSA clinical isolates = test: microbe, parasite or virus in culture; type: cell-based, S. aureus; conditions: for MIC: Staphylococcus aureus, MRSA, read-out: MIC
Procedure: as §1
Susceptibility testing was performed in triplicate, using the microdilution broth method as outlined by the Clinical and Laboratory Standards Institute[52]. Mueller Hinton (MH) broth was used.

E. faecalis = test: microbe, parasite or virus in culture; type: cell-based; conditions: for MIC: Enterococcus faecalis, E. faecalis
A. baumannii [8] = test system: A. baumannii; design: method as in earlier work; conditions: previously determined, cited from earlier work
[9] = test system: resistant strains of ATCC 29213; test: microbe, parasite or virus in culture; type: cell-based, S. aureus; conditions: Staphylococcus aureus
P. aeruginosa [10] = test system: P. aeruginosa; design: method as in earlier work; conditions: previously determined, cited from earlier work
[11] = ATCC19433, ATCC 19433, gyrA WT, parC WT
[12] = ATCC29212, ATCC 29212, gyrA WT, parC WT

T1 sequence (P11388 whole entry): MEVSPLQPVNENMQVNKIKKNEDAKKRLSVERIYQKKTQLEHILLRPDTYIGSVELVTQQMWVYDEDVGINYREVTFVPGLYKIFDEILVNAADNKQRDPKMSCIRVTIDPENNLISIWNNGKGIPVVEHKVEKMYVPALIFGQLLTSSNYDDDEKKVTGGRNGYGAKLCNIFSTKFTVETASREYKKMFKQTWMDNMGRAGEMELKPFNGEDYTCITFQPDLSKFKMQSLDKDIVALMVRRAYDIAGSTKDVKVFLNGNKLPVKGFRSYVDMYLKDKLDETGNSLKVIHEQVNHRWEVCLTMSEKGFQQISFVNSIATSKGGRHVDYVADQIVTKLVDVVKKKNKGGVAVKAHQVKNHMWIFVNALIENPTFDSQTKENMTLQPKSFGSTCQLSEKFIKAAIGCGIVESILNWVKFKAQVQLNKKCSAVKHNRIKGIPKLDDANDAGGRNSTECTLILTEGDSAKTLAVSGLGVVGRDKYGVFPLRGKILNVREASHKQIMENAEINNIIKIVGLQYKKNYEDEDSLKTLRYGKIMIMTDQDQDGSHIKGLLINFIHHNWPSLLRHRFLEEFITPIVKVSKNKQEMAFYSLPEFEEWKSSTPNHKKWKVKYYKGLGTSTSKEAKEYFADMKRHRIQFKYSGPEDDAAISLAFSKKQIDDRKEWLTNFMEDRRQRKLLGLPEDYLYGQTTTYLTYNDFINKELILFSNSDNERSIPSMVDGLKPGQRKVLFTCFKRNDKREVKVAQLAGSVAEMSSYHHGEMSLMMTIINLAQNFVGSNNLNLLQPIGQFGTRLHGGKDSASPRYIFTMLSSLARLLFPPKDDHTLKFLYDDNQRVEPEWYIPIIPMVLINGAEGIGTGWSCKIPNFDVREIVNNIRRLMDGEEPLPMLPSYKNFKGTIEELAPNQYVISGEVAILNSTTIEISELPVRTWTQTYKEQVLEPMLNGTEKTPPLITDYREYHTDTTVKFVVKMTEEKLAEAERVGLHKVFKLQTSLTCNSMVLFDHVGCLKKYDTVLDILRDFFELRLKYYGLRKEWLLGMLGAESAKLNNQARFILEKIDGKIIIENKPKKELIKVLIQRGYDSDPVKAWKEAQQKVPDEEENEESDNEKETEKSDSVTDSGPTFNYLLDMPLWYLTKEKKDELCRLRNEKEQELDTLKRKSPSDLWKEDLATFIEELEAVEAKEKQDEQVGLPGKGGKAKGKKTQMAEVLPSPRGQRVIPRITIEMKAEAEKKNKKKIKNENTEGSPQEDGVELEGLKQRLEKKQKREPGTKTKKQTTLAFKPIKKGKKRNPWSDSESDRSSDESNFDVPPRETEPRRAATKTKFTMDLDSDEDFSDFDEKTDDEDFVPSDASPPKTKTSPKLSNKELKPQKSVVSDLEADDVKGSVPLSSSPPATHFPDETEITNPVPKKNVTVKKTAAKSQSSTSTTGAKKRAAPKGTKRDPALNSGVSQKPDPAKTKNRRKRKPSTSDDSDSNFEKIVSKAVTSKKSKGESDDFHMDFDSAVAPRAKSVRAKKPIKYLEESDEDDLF

CCCc1cc(=O)n(C)c2c3c4c(cc12)c(CCC)cc(=O)n4CO3 [compound 14]
MIC against S. aureus NRS3 [1]: 32 µg/mL (≈ 94.6 µM)
solubility at 1 h [2]: < 1 µM
MIC against S. aureus 29213 [3]: > 32 µg/mL
MIC [3]: > 32 µg/mL

COc1cccc2c1C(=O)c1c(O)c3c(c(O)c1C2=O)C[C@@](O)(C(=O)CO)C[C@@H]3O[C@H]1C[C@H](N)[C@H](O)[C@H](C)O1 [doxorubicin, reference compound]
concentration inhibiting human topoisomerase II (human topoisomerase II): 3 µM

Cc1cc(=O)n2c3c(c4c(cc13)c(CO)cc(=O)n4C)OC2 [NM, Nybomycin]
activity in mice infected with various bacteria [4]: no activity
tolerability in mice [5]: well tolerated

CCCn1c(=O)cc(C)c2cc3c(C)cc(=O)n4c3c(c21)OC4 [DNM-8]
MIC (Ent. Spp.): 1 µg/mL (≈ 3.22 µM)
MIC (E. faecium; C21190, gyrA Ser83 Arg, parC Ser80Ile): 8 µg/mL (≈ 25.8 µM)
MIC (E. faecium; C27282, gyrA Ser83 Arg, parC Ser80Arg): 8 µg/mL (≈ 25.8 µM)
MIC (E. faecium; C27569, gyrA Ser83Ile, parC Ser80Ile): 1 µg/mL (≈ 3.22 µM)
MIC (E. faecium; D1, gyrA Ser83Ile, parC Ser80Ile): 0.5 µg/mL (≈ 1.61 µM)
MIC (E. faecium; S34, gyrA Ser83Ile, parC Ser80 Arg): 2 µg/mL (≈ 6.44 µM)
MIC (E. faecium; S51, gyrA Ser83Ile, parC Ser80Ile): 1 µg/mL (≈ 3.22 µM)
MIC (E. faecium; S122, gyrA Ser83Ile, parC Ser80Ile): 1 µg/mL (≈ 3.22 µM)
MIC (E. faecium; S226, gyrA Ser83Ile, parC Ser80Ile): 1 µg/mL (≈ 3.22 µM)
MIC (E. faecium; S235, gyrA Ser83Ile, parC Ser80Ile): 1 µg/mL (≈ 3.22 µM)
MIC (E. faecium; S344, gyrA Ser83Ile, parC Ser80Ile): 1 µg/mL (≈ 3.22 µM)
MIC (E. faecium; S557, gyrA Ser83Ile, parC Ser80Ile): 0.5 µg/mL (≈ 1.61 µM)
MIC (E. faecium; SL152, gyrA Ser83Ile, parC Ser80Ile): 1 µg/mL (≈ 3.22 µM)
MIC (E. faecium; U63, gyrA Ser83 Arg, parC Ser80Ile): 4 µg/mL (≈ 12.9 µM)
MIC (E. faecium; U275, gyrA Ser83Cys Glu87Gly, parC Ser80Ile): 4 µg/mL (≈ 12.9 µM)
MIC (E. faecium; U464, gyrA Ser83 Arg, parC Ser80Ile): 2 µg/mL (≈ 6.44 µM)
MIC (E. faecium; U503, gyrA Ser83 Arg, parC Ser80Ile): 4 µg/mL (≈ 12.9 µM)
MIC (E. faecium; U563, gyrA Ser83 Arg, parC Ser80Ile): 4 µg/mL (≈ 12.9 µM)
MIC (A. baumannii [6]): > 32 µg/mL
MIC (A. baumannii [6]; ATCC19606, A. baumannii ATCC 19606, read-out: MIC): > 32 µg/mL
MIC against S. aureus NRS3 [1]: 0.12 µg/mL (≈ 0.387 µM)
MIC (P. aeruginosa [7]; PA1586 (CIP resistant clinical isolate)): > 32 µg/mL
MIC (P. aeruginosa [7]; Pseudomonas aeruginosa, P. aeruginosa PAO1, read-out: MIC): > 32 µg/mL
MIC (P. aeruginosa [7]; Pseudomonas aeruginosa, read-out: MIC): > 32 µg/mL
Sensitivity of VRE clinical isolates (VRE clinical isolates): sensitive
solubility at 1 h (physchem): 68 ± 9 µM (≈ 21.1 µg/mL)
MIC (E. coli; Escherichia coli, ATCC25922, E. coli ATCC 25922, gyrA none, parC none): > 32 µg/mL
MIC (MRSA clinical isolates; strain SAU.1118): 8 µg/mL (≈ 25.8 µM)
MIC (MRSA clinical isolates; strain SAU.2996): 2 µg/mL (≈ 6.44 µM)
MIC (MRSA clinical isolates; strain SAU.3017): 4 µg/mL (≈ 12.9 µM)
MIC (MRSA clinical isolates; strain SAU.3021): 0.125 µg/mL (≈ 0.403 µM)
MIC (MRSA clinical isolates; strain SAU.3025): 0.125 µg/mL (≈ 0.403 µM)
MIC (MRSA clinical isolates; strain SAU.3026): 0.25 µg/mL (≈ 0.806 µM)
MIC (MRSA clinical isolates; strain SAU.42): 8 µg/mL (≈ 25.8 µM)
MIC (MRSA clinical isolates; strain SAU.447): 1 µg/mL (≈ 3.22 µM)
MIC (MRSA clinical isolates; strain SAU.555): 0.5 µg/mL (≈ 1.61 µM)
MIC (MRSA clinical isolates; strain SAU.669): 0.125 µg/mL (≈ 0.403 µM)
Sensitivity of MRSA clinical isolates (MRSA clinical isolates; panel of MRSA clinical isolates (n=21)): sensitive
MIC against S. aureus 29213 [3]: 16 µg/mL (≈ 51.6 µM)
MIC [3]: 16 µg/mL (≈ 51.6 µM)
MIC (E. faecalis; [11]): 16 µg/mL (≈ 51.6 µM)
MIC (E. faecalis; [12]): 8 µg/mL (≈ 25.8 µM)
MIC (E. faecalis; C21667, gyrA Ser83Ile, parC Ser80Ile): 1 µg/mL (≈ 3.22 µM)
MIC (E. faecalis; C28535, gyrA Ser83Ile, parC Ser80Ile): 1 µg/mL (≈ 3.22 µM)
MIC (E. faecalis; S206, gyrA Ser83 Arg, parC Ser80Ile): 4 µg/mL (≈ 12.9 µM)
MIC (E. faecalis; S234, gyrA Ser83Ile, parC Ser80Ile Glu84Asp): 0.5 µg/mL (≈ 1.61 µM)

O=C(O)c1cn(C2CC2)c2cc(N3CCNCC3)c(F)cc2c1=O [CIP, ciprofloxacin, reference compound]
CIP (S/I/R) (E. faecium; strain C21190): R (resistant (R) with a MIC ≥ 16 µg mL-1)
CIP (S/I/R) (E. faecium; strain C27282): R (resistant (R) with a MIC ≥ 16 µg mL-1)
CIP (S/I/R) (E. faecium; strain C27569): R (resistant (R) with a MIC ≥ 16 µg mL-1)
CIP (S/I/R) (E. faecium; strain D1): R (resistant (R) with a MIC ≥ 16 µg mL-1)
CIP (S/I/R) (E. faecium; strain S34): R (resistant (R) with a MIC ≥ 16 µg mL-1)
CIP (S/I/R) (E. faecium; strain S51): R (resistant (R) with a MIC ≥ 16 µg mL-1)
CIP (S/I/R) (E. faecium; strain S122): R (resistant (R) with a MIC ≥ 16 µg mL-1)
CIP (S/I/R) (E. faecium; strain S226): R (resistant (R) with a MIC ≥ 16 µg mL-1)
CIP (S/I/R) (E. faecium; strain S235): R (resistant (R) with a MIC ≥ 16 µg mL-1)
CIP (S/I/R) (E. faecium; strain S344): R (resistant (R) with a MIC ≥ 16 µg mL-1)
CIP (S/I/R) (E. faecium; strain S557): R (resistant (R) with a MIC ≥ 16 µg mL-1)
CIP (S/I/R) (E. faecium; strain SL152): R (resistant (R) with a MIC ≥ 16 µg mL-1)
CIP (S/I/R) (E. faecium; strain U63): R (resistant (R) with a MIC ≥ 16 µg mL-1)
CIP (S/I/R) (E. faecium; strain U275): R (resistant (R) with a MIC ≥ 16 µg mL-1)
CIP (S/I/R) (E. faecium; strain U464): R (resistant (R) with a MIC ≥ 16 µg mL-1)
CIP (S/I/R) (E. faecium; strain U503): R (resistant (R) with a MIC ≥ 16 µg mL-1)
CIP (S/I/R) (E. faecium; strain U563): R (resistant (R) with a MIC ≥ 16 µg mL-1)
CIP (S/R) (A. baumannii [8]; A. baumannii KB304): R
CIP MIC (A. baumannii [8]; A. baumannii KB304): 24 µg/mL
CIP (S/R) (A. baumannii [8]; A. baumannii KB349): R
CIP MIC (A. baumannii [8]; A. baumannii KB349): > 32 µg/mL
MIC ([9]; ATCC29213, high-level CIP-resistant strains, second step, S84L mutation in GyrA): 16 to 64 µg/mL (≈ 48.3 to 193 µM)
MIC ([9]; ATCC29213, low-level CIP-resistant strains, first step, WT gyrA, mutation in ParC (for example E84K or S80F)): 4 to 8 µg/mL (≈ 12.1 to 24.1 µM)
CIP (S/R) (A. baumannii [6]): S
CIP (S/R) (P. aeruginosa [10]; PA1000): R
CIP (S/R) (P. aeruginosa [10]; PA1586): R
CIP (S/R) (P. aeruginosa [7]): S
CIP (S/R) (E. coli): S
MIC (E. faecalis; [11]): 2 µg/mL (≈ 6.04 µM)
MIC (E. faecalis; [12]): 0.5 to 2 µg/mL (≈ 1.51 to 6.04 µM)
CIP (S/I/R) (E. faecalis; strain ATCC 19433): S (sensitive (S) if it had an MIC ≤ 4 µg mL-1)
CIP (S/I/R) (E. faecalis; strain ATCC 29212): S (sensitive (S) if it had an MIC ≤ 4 µg mL-1)
CIP (S/I/R) (E. faecalis; strain C21667): R (resistant (R) with a MIC ≥ 16 µg mL-1)
CIP (S/I/R) (E. faecalis; strain C28535): R (resistant (R) with a MIC ≥ 16 µg mL-1)
CIP (S/I/R) (E. faecalis; strain S206): R (resistant (R) with a MIC ≥ 16 µg mL-1)
CIP (S/I/R) (E. faecalis; strain S234): R (resistant (R) with a MIC ≥ 16 µg mL-1)
